One may read the IC50 as the concentration that inhibits the measured activity by half. High values mean weaker potency, low ones greater potency.

Data on 19 compounds can be found in ChEMBL document CHEMBL3769350, “Synthesis and biological evaluation of piperazine group-linked bivalent -carbolines as potential antitumor agents” (Medchemcomm, 2015).

Type in all cases: functional, cell-based
Experiment [1] has as its system MCF7. The experiment is described as follows: Cytotoxicity against human MCF7 cells by MTT assay. On the technique in general: Tetrazolium assays rely on reduction of a dye to a coloured formazan, in cell work by metabolically active cells.
Experiment [2] relates to HepG2. The experiment in a line: Cytotoxicity against human HepG2 cells by MTT assay.
In experiment [3] the test system is CWR22R. The experiment in a line: Cytotoxicity against human 22Rv1 cells by MTT assay.
Experiment [4] has as its system HT-29. The experiment is described as follows: Cytotoxicity against human HT-29 cells by MTT assay.
The subject of experiment [5] is 769-P. The experiment is described as follows: Cytotoxicity against human 769-P cells by MTT assay.
The subject of experiment [6] is A-375. The experiment in a line: Cytotoxicity against human A375 cells by MTT assay.
Experiment [7] is described as follows: Cytotoxicity against human SKOV3 cells by MTT assay. Particulars: SK-OV-3.
Experiment [8] in a line: Cytotoxicity against human ECA109 cells by MTT assay. Particulars: ECa-109.
A short description of experiment [9]: Cytotoxicity against human BGC823 cells by MTT assay. Particulars: BGC-823.
Experiment [10] is described as follows: Cytotoxicity against mouse LLC cells by MTT assay. Particulars: Lewis lung carcinoma.

As for `COc1ccc(-c2nc(CN3CCN(Cc4cc5c6ccccc6n(Cc6ccccc6)c5c(-c5ccc(OC)cc5)n4)CC3)cc3c4ccccc4n(Cc4ccccc4)c23)cc1`, the half-maximal inhibitory concentration (IC50) in [1], in experiment [2], in [3], in experiment [4], in [5] and in experiment [6] was over 100 µM in each case. Besides, the IC50 was over 100 µM in [7], over 100 µM in [8], over 100 µM in [9] and 40.4 µM in experiment [10].
As to `CCCCn1c2ccccc2c2cc(CN3CCN(Cc4cc5c6ccccc6n(CCCC)c5c(-c5ccc(OC)cc5)n4)CC3)nc(-c3ccc(OC)cc3)c21`, the 50% inhibitory concentration (IC50) was 20.6 µM in [1]; 25.7 µM in experiment [2]; 27.6 µM in experiment [3]; 11.8 µM in experiment [4]; 16.6 µM in [5]; 19.6 µM in [6]. In addition, the IC50 in experiment [7] worked out at 24.6 µM; in [8] it was 24.7 µM; in experiment [9] it was 28.8 µM; in experiment [10], 27.4 µM.
As for `CCCCn1c2ccccc2c2cc(CN3CCN(Cc4cc5c6ccccc6n(CCCC)c5c(-c5ccc(OC)c(OC)c5)n4)CC3)nc(-c3ccc(OC)c(OC)c3)c21`, the half-inhibitory concentration (IC50) turned out to be 14.5 µM in [1]; 17 µM in experiment [2]; 19.5 µM in experiment [3]; 11.8 µM in experiment [4]; 10 µM in [5]; 15.5 µM in experiment [6]. For the same compound, the IC50 stood at 25.7 µM in [7], 32.4 µM in experiment [8], 6.21 µM in experiment [9] and 9.78 µM in experiment [10].
Turning to `Fc1ccc(Cn2c3ccccc3c3cc(CN4CCN(Cc5cc6c7ccccc7n(Cc7ccc(F)cc7)c6cn5)CC4)ncc32)cc1`, the IC50 is 72.8 µM in [1]; 76.3 µM in experiment [2]; 60.6 µM in [3]; 18.3 µM in [4]; 29 µM in [5]; 46 µM in [6]. Also, the IC50 in [7] is 8.43 µM; in experiment [8] it was 24.7 µM; in experiment [9] it was 85.6 µM; in experiment [10], 15.9 µM.
As for `COc1ccc(-c2nc(CN3CCN(Cc4cc5c6ccccc6n(Cc6ccccc6)c5c(-c5ccc(OC)c(OC)c5)n4)CC3)cc3c4ccccc4n(Cc4ccccc4)c23)cc1OC`, the IC50 in experiment [1], in experiment [2], in experiment [3], in experiment [4], in experiment [5] and in [6] was over 100 µM throughout. Further, the concentration for half-maximal inhibition (IC50) in experiment [7] was over 100 µM; in [8], over 100 µM; in experiment [9], over 100 µM; in experiment [10] it was 36.4 µM.
Take `c1ccc(Cn2c3ccccc3c3cc(CN4CCN(Cc5cc6c7ccccc7n(Cc7ccccc7)c6c(-c6ccccc6)n5)CC4)nc(-c4ccccc4)c32)cc1`: the 50% inhibitory concentration (IC50) in [1], in [2], in experiment [3], in experiment [4], in [5] and in experiment [6] was over 100 µM in each case. Besides, the IC50 in [7], in [8], in experiment [9] and in experiment [10] was over 100 µM in each case.
On to `c1ccc(Cn2c3ccccc3c3cc(CN4CCN(Cc5cc6c7ccccc7n(Cc7ccccc7)c6cn5)CC4)ncc32)cc1`, for which the IC50 in experiment [1] was over 100 µM; in experiment [2], 65.4 µM; in experiment [3], over 100 µM; in [4] it was 36.8 µM; in experiment [5] it was over 100 µM; in experiment [6], over 100 µM. For the same compound, the IC50 was 46.5 µM in [7], over 100 µM in experiment [8], over 100 µM in experiment [9] and 79.8 µM in experiment [10].
Consider `COc1ccc(-c2nc(CN3CCN(Cc4cc5c([nH]c6ccccc65)c(-c5ccc(OC)cc5)n4)CC3)cc3c2[nH]c2ccccc23)cc1`, for which the IC50 in [1], in experiment [2], in experiment [3], in experiment [4], in experiment [5] and in [6] was over 100 µM in each case. For the same compound, the IC50 in experiment [7], in experiment [8], in experiment [9] and in experiment [10] was over 100 µM each time.
For the compound `Cc1nc(CN2CCN(Cc3cc4c5ccccc5n(C)c4c(C)n3)CC2)cc2c3ccccc3n(C)c12`, the half-maximal inhibitory concentration (IC50) in experiment [1] was over 100 µM; in [2], over 100 µM; in experiment [3], 86.3 µM; in [4], over 100 µM; in experiment [5], over 100 µM; in experiment [6], over 100 µM. Moreover, the half-inhibitory concentration (IC50) in [7] is 31 µM; in experiment [8], over 100 µM; in [9] it was 78.5 µM; in [10] it was 61.8 µM.
As for `c1ccc(CCCn2c3ccccc3c3cc(CN4CCN(Cc5cc6c7ccccc7n(CCCc7ccccc7)c6c(-c6ccccc6)n5)CC4)nc(-c4ccccc4)c32)cc1`, the half-maximal inhibitory concentration (IC50) in [1], in experiment [2], in [3], in experiment [4], in experiment [5] and in experiment [6] was over 100 µM throughout. In addition, the IC50 in experiment [7], in [8], in [9] and in experiment [10] was over 100 µM throughout.
On to `Cn1c2ccccc2c2cc(CN3CCN(Cc4cc5c6ccccc6n(C)c5c(-c5ccccc5)n4)CC3)nc(-c3ccccc3)c21`, for which the IC50 in experiment [1] was over 100 µM; in experiment [2], over 100 µM; in experiment [3] it was 54.3 µM; in experiment [4], over 100 µM; in experiment [5], over 100 µM; in [6], 40.9 µM. Further, the IC50 was over 100 µM in experiment [7], over 100 µM in experiment [8], over 100 µM in [9] and 34.5 µM in [10].
For `c1ccc(CCCn2c3ccccc3c3cc(CN4CCN(Cc5cc6c7ccccc7n(CCCc7ccccc7)c6cn5)CC4)ncc32)cc1`, the IC50 in experiment [1] was 7.62 µM; in experiment [2] it was 8.95 µM; in [3], 5.32 µM; in experiment [4], 18.7 µM; in experiment [5], 3.02 µM; in [6], 8.35 µM. The half-maximal inhibitory concentration (IC50) in [7] worked out at 5.51 µM; in experiment [8] it was 24.6 µM; in [9] it was 7.62 µM; in experiment [10] it was 5.15 µM.
As for `COc1ccc(-c2nc(CN3CCN(Cc4cc5c6ccccc6n(CCCc6ccccc6)c5c(-c5ccc(OC)cc5)n4)CC3)cc3c4ccccc4n(CCCc4ccccc4)c23)cc1`, the IC50 in [1], in experiment [2], in experiment [3], in experiment [4], in [5] and in experiment [6] was over 100 µM throughout. In addition, the half-inhibitory concentration (IC50) in experiment [7], in experiment [8], in [9] and in [10] was over 100 µM in each case.
In the case of `CCn1c2ccccc2c2cc(CN3CCN(Cc4cc5c6ccccc6n(CC)c5cn4)CC3)ncc21`, the 50% inhibitory concentration (IC50) in experiment [1] was 82.8 µM; in [2], over 100 µM; in [3], 52.3 µM; in [4] it was 32.8 µM; in [5] it was 64.3 µM; in experiment [6], 49.9 µM. For the same compound, the IC50 in experiment [7] was 24.4 µM; in experiment [8], over 100 µM; in [9] it was 68.6 µM; in experiment [10], 13.8 µM.
In the case of `CCCCn1c2ccccc2c2cc(CN3CCN(Cc4cc5c6ccccc6n(CCCC)c5c(-c5cc(OC)c(OC)c(OC)c5)n4)CC3)nc(-c3cc(OC)c(OC)c(OC)c3)c21`, the IC50 in experiment [1] was 12.5 µM; in [2] it was 7.26 µM; in [3] it was 6.82 µM; in experiment [4], 13.5 µM; in experiment [5], 15.6 µM; in [6] it was 36 µM. Moreover, the half-maximal inhibitory concentration (IC50) in experiment [7] is 7.11 µM; in experiment [8], 18.3 µM; in experiment [9], 26.6 µM; in experiment [10], 19.8 µM.
For the compound `CCn1c2ccccc2c2cc(CN3CCN(Cc4cc5c6ccccc6n(CC)c5c(-c5ccccc5)n4)CC3)nc(-c3ccccc3)c21`, the IC50 in [1] is over 100 µM; in [2], over 100 µM; in experiment [3] it was 24.9 µM; in experiment [4], 17.6 µM; in experiment [5], 29.6 µM; in experiment [6], 9.92 µM. Besides, the half-inhibitory concentration (IC50) in [7] was 19.8 µM; in experiment [8], over 100 µM; in experiment [9] it was 38.8 µM; in [10], 14 µM.
Turning to `COc1cc(-c2nc(CN3CCN(Cc4cc5c([nH]c6ccccc65)c(-c5cc(OC)c(OC)c(OC)c5)n4)CC3)cc3c2[nH]c2ccccc23)cc(OC)c1OC`, the IC50 in experiment [1], in [2], in experiment [3], in [4], in experiment [5] and in [6] was over 100 µM in each case. Besides, the IC50 in [7], in [8], in experiment [9] and in [10] was over 100 µM each time.
For the compound `COc1ccc(-c2nc(CN3CCN(Cc4cc5c6ccccc6n(CCCc6ccccc6)c5c(-c5ccc(OC)c(OC)c5)n4)CC3)cc3c4ccccc4n(CCCc4ccccc4)c23)cc1OC`, the IC50 in experiment [1], in experiment [2], in experiment [3], in experiment [4], in experiment [5] and in [6] was over 100 µM throughout. The IC50 in experiment [7], in [8], in experiment [9] and in experiment [10] was over 100 µM throughout.
Regarding `COc1cc(-c2nc(CN3CCN(Cc4cc5c6ccccc6n(C)c5c(-c5cc(OC)c(OC)c(OC)c5)n4)CC3)cc3c4ccccc4n(C)c23)cc(OC)c1OC`, the IC50 in experiment [1] was 65.6 µM; in [2], over 100 µM; in experiment [3], over 100 µM; in experiment [4], over 100 µM; in experiment [5], over 100 µM; in experiment [6], 64.2 µM. Also, the IC50 came out at 18.9 µM in experiment [7], 26.3 µM in experiment [8], 45.3 µM in experiment [9] and 39 µM in [10].
